Here are results for six molecules from article PMC9320067, “Novel Potent and Selective Agonists of the GPR55 Receptor Based on the 3-Benzylquinolin-2(1H)-One Scaffold” (Pharmaceuticals, 2022).

The target of data set [1] is T1, hGPR55 (Homo sapiens, UniProt Q9Y2T6).
T1 construct: host or cells: CHO-K1
As to the kind of experiment: p-ERK1/2 activation, in-cell Western, CHO cells expressing hGPR55. The settings on record: for Emax, p-ERK1/2 activation: fold over vehicle, CHO cells expressing hGPR55, 30 min, mean ± SEM. The format is cell-based. The procedure: Downstream signaling by hGPR55 was investigated by quantifying p-ERK activation in the in-cell Western assay.
Cells were seeded at approximately 2000 cells/well in 96-well plates and treated with 0.1–10 μM compounds for 30 min and were then fixed for 10 min at room temperature with 4% paraformaldehyde. Cells were washed 3 times with 100 μL 1X PBS for 5 min each. Cells were incubated with blocking solution (PBS, 20% Odyssey blocking buffer, and 0.1% TritonX-100) for 1 h at room temperature. Next, cells were exposed to primary antibodies for p-ERK1/2(T202/Y204) (mouse monoclonal IgG, Cat# sc-136521) or ERK1/2 (rabbit polyclonal IgG, Cat# sc-292838) (Santa Cruz Biotechnology, Santa Cruz, CA) diluted (1:200) in blocking solution overnight at 4 °C. Cells were washed 3 times with 100 μL PBS for 5 min each. Cells were exposed to the secondary antibodies goat polyclonal anti-rabbit IgG IR^Dye800-conjugated antibody diluted 1:500 (Li-Cor Biosciences, IgG, Cat# P/S 926-32210, RRID AB-2687825, lot# C50113-18) and goat polyclonal anti-mouse IgG IR^Dye680-conjugated antibody diluted 1:500 (Li-Cor Biosciences, IgG, Cat# P/N 925-68070, RRID AB-2651128, lot# C50113-17) for 1 h at room temperature. Cells were washed 3 times with 100 μL PBS for 5 min each. Analyses were conducted using the Odyssey Imaging system and software (version 3.0; Li-Cor).
(§1) Data for p-ERK in-cell westerns are shown as fold over vehicle response (i.e., 1). Estimates of Ki, EC50 and Emax were determined using non-linear regression (3 parameters) (GraphPad, Prism, v. 9.0). p < 0.05 was determined to be significant.

In data set [2] the target is T2, human CB1R (Homo sapiens, UniProt P21554).
T2 construct: HitHunter) 95-0071C2; host or cells: CHO-K1
The data set is described as follows: [3H]CP55,940 radioligand displacement assay on hCB1R CHO cell membranes. The class given is binding. The procedure: (§2) Assays were performed as described previously and summarized here. […] Binding was initiated by the addition of transfected hGPR55, hCB1R or hCB2R CHO cell membranes (25 μg protein per well). All assays were performed at 37°C for 120 min prior to quenching with ice-cold Tris binding buffer followed by vacuum filtration using a 24-well sampling manifold (Brandel Cell Harvester; Brandel, Inc., Gaithersburg, MD, USA) and Brandel GF/B filters. Each reaction well was washed six times with 1.2 mL aliquots of Tris-binding buffer. The filters were air-dried overnight and then placed in 5 mL of scintillation fluid (Ultima Gold XR, Perkin Elmer, Inc., Waltham, MA, USA). Liquid scintillation spectrometry was used for quantifying radioactivity.
as §1
(Loss of bound radioactivity is the signal in a displacement assay; it reports binding, not function.)

The target of data set [3] is T1, hGPR55. The data set is described as follows: [3H]CP55,940 radioligand displacement assay on hGPR55 CHO cell membranes. The format is binding. The procedure: as §2, §1
For data set [4], the target named is T3, human CB2R (Homo sapiens, UniProt P34972).
T3 construct: host or cells: CHO-K1
The data set is described as follows: [3H]CP55,940 radioligand displacement assay on hCB2R CHO cell membranes. The class given is binding. The method, then:
as §2, §1

[5] abbreviates: CHO cells expressing hGPR55, 30 min treatment, mean (95% CI), n = 6, read-out: EC50 95% CI, p-ERK1/2 activation.

Read-outs that look alike come from different tables or passages of the source.

T1 sequence (Q9Y2T6 whole entry): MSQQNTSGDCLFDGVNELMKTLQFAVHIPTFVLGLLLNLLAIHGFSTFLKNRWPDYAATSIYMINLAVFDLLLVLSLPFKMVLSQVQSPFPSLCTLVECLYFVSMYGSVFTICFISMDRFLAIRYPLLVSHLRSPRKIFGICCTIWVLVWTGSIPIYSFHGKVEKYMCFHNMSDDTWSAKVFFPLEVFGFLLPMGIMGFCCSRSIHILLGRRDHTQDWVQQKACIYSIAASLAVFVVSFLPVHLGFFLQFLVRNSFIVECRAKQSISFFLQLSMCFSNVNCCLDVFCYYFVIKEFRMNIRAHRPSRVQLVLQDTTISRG
T2 sequence (P21554 whole entry): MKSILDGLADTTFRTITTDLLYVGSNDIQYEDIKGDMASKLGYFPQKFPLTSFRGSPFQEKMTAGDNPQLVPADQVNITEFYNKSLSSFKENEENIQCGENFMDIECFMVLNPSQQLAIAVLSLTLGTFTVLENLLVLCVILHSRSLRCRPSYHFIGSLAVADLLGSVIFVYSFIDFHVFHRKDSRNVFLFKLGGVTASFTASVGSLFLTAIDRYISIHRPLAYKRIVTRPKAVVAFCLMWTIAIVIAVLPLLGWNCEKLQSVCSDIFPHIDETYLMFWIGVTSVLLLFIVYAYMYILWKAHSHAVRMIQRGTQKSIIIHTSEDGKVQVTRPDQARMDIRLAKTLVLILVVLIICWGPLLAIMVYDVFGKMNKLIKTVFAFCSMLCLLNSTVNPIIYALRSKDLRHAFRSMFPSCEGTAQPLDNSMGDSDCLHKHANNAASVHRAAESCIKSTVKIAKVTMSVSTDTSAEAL
T3 sequence (P34972 whole entry): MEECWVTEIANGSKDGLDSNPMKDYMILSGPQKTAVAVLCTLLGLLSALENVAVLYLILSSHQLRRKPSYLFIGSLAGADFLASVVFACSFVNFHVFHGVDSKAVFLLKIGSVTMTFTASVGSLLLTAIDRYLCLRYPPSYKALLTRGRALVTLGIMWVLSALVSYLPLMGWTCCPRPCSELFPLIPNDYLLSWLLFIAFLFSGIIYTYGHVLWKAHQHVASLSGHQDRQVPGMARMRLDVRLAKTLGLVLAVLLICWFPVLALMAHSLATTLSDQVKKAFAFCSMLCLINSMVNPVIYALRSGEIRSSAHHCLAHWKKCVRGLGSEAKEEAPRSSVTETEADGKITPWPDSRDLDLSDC

Take `CCCCc1cc(O)c2cc(Cc3ccccc3O)c(=O)[nH]c2c1` [Compound 3, 7-n-Butyl-5-hydroxy-3-(2-hydroxybenzyl)quinolin-2(1H)-one]: the melting point (commonly the temperature of the solid-liquid transition) lay within 252 to 254 °C. Moreover, the EC50 in data set [1] (setting [5]) was 1.4 nM. Besides, the “Emax, p-ERK1/2 activation” value in data set [1] (n = 6) is 1.2 ± 0.04 Fold. Affinity in data set [2] was put at a Ki of 5.1 nM. In addition, in data set [3] (read-out: Ki hGPR55), the inhibitory constant (Ki) (commonly a dissociation constant, usually derived from enzyme kinetics or from competition with a known ligand) was 6.2 nM. In data set [4], the Ki was over 10000 nM.

As for `CCCCc1cc(O)c2cc(Cc3ccccc3O)c(=O)n(C)c2c1` [Compound 4, 7-n-Butyl-5-hydroxy-3-(2-hydroxybenzyl)-1-methylquinolin-2(1H)-one], the melting point was 223 to 225 °C. Besides, the EC50 in data set [1] (setting [5]) came out at 11 nM. Besides, in data set [1] (n = 6), the “Emax, p-ERK1/2 activation” value stood at 1.3 ± 0.03 Fold. The inhibitory constant (Ki) in data set [2] stood at 29 nM. For the same molecule, in data set [3] (read-out: Ki hGPR55), the inhibitory constant (Ki) came to 7.1 nM. Besides, in data set [4], the inhibitory constant (Ki) was determined as 7.9 nM.

In the case of `CCCCc1cc(OC)c2cc(Cc3ccccc3OC)c(=O)[nH]c2c1` [Compound 1, 7-n-Butyl-5-methoxy-3-(2-methoxybenzyl)quinolin-2(1H)-one], the melting point fell in the range of 208 to 210 °C. Besides, in data set [1] (setting [5]), the EC50 is 6.4 nM. In addition, the “Emax, p-ERK1/2 activation” value in data set [1] (n = 6) was determined as 1.5 ± 0.06 Fold. Also, the Ki in data set [2] is over 10000 nM. Besides, in data set [3] (read-out: Ki hGPR55), the inhibitory constant (Ki) worked out at 14 nM. The Ki in data set [4] is over 10000 nM.

Consider `C=C(C)[C@@H]1CCC(C)=C[C@H]1c1c(C)cc(O)cc1O` [Compound O-1602, O-1602, reference compound], for which the EC50 in data set [1] (setting [5]) amounted to 61 nM. Also, the “Emax, p-ERK1/2 activation” value in data set [1] (n = 6) turned out to be 1.3 ± 0.03 Fold. In addition, the inhibitory constant (Ki) in data set [3] (read-out: Ki hGPR55) was 10 nM.

`CCCCCCC(C)(C)c1ccc([C@@H]2C[C@H](O)CC[C@H]2CCCO)c(O)c1` [CP55,940, reference compound] had an EC50 in data set [1] of 4.2 nM. For the same molecule, in data set [3], the Ki amounted to 13 nM.

Regarding `CCCCc1cc(OC)c2cc(Cc3ccccc3OC)c(=O)n(C)c2c1` [Compound 2, 7-n-Butyl-5-methoxy-3-(2-methoxybenzyl)-1-methylquinolin-2(1H)-one], the melting point is 78 to 80 °C. For the same molecule, the EC50 in data set [1] (setting [5]) was 1.1 nM. Further, the “Emax, p-ERK1/2 activation” value in data set [1] (n = 6) is 1.4 ± 0.07 Fold. The inhibition constant (Ki) in data set [2] is over 10000 nM. For the same molecule, the inhibition constant Ki in data set [3] (read-out: Ki hGPR55) stood at 1.2 nM. The molecule also showed a Ki in data set [4] of 6.9 nM.
